According to doi:10.1101/2023.11.09.566408v1 (bioRxiv, 2023):

Assays:
[1] = type: in vivo, mice; conditions: male, Swiss, mouse, plasma, po, 100 ug
[2] = rats, IV, cited from earlier work

SMILES: CC[C@H](C)[C@H](NC(=O)[C@@H]1CCCN1C(=O)CNC(=O)[C@H](Cc1ccccc1)NC(=O)[C@H](CC(N)=O)NC(=O)[C@H](CC(N)=O)NC(=O)[C@H](CO)NC(=O)[C@H](CO)NC(=O)[C@H](Cc1c[nH]cn1)NC(=O)[C@@H](NC(=O)[C@H](CC(C)C)NC(=O)[C@H](Cc1ccccc1)NC(=O)[C@H](CC(N)=O)NC(=O)[C@H](C)NC(=O)[C@H](CC(C)C)NC(=O)[C@H](CCCNC(=N)N)NC(=O)[C@H](CCC(N)=O)NC(=O)[C@@H](NC(=O)[C@H](C)NC(=O)[C@@H]1CSSC[C@H](NC(=O)[C@@H](N)CCCCN)C(=O)N[C@@H](CC(N)=O)C(=O)N[C@@H]([C@@H](C)O)C(=O)N[C@@H](C)C(=O)N[C@@H]([C@@H](C)O)C(=O)N1)[C@@H](C)O)C(C)C)C(=O)N[C@@H](CC(C)C)C(=O)N1CCC[C@H]1C(=O)N1CCC[C@H]1C(=O)N[C@H](C(=O)N[C@@H](CC(N)=O)C(=O)N[C@H](C(=O)NCC(=O)N[C@@H](CO)C(=O)N[C@@H](CC(N)=O)C(=O)N[C@H](C(=O)N[C@@H](Cc1ccc(O)cc1)C(N)=O)[C@@H](C)O)C(C)C)[C@@H](C)O [pramlintide]
- Tmax [1]: 30 min
- plasma concentration ([2]; 1 μg): 1,000 pM
- plasmatic concentration ([2]; 10 μg): 10,000 pM
